Data reported in patent US11168086B2, “Methods of synthesizing pyrazine compounds” (Hoffmann-La Roche Inc., priority 2015, dated 2021).

System: HBV
Experiment: HBV inhibition assay: anti-HBV activity in vitro in HepG2.2.15 cells (extracellular HBV DNA by qPCR)
Type: cell-based
Conditions: Hepatitis B virus, 120 h, five days after compound treatment, extracellular HBV DNA in culture supernatant by qPCR, concentration at which HBV replication is inhibited by 50%
Text: Example 441: HBV Inhibition Assays
Cell Line and Culture Conditions:
HepG2.2.15 is a stably-transfected cell line containing the HBV genome. It is derived from the hepatoblastoma cell line Hep G2 (American Type Culture Collection, ATCC® HB-8065™) by the published procedures described in reference: MA Selles et al. Proc. Natl. Acad. Sci. USA 1987, 84, 1005-1009. The cell line was maintained in Dulbecco's modified Eagle's medium (DMEM)-F12 medium supplemented with 10% fetal bovine serum, 100 U/mL penicillin, 100 μg/mL streptomycin, and 0.5 mg/mL of G418.
Anti-HBV Activity In Vitro:
HepG2.2.15 cells were seeded into 96-well plates (3×10^4 cells in 100 μL media per well) and incubated overnight at 37° C. The test compounds were serially half-log diluted in DMSO, then diluted 100 times in culture media. 100 μL diluted compounds were added into the plates to reach 0.5% final concentration of DMSO in every well. Five days after compound treatment, culture supernatant was collected for further analysis.
For quantitative PCR detection of extracellular HBV DNA, culture supernatant was processed by Proteinase K digestion. After heat inactivation of the enzyme, the samples were subjected to HBV DNA quantification by qPCR. The effective compound concentration at which
HBV replication is inhibited by 50% (EC50) was determined.

Q: With `O=C(Nc1ccc(F)c(Cl)c1)N1CCn2ncc(-c3ccc(F)cc3)c2C1` [Example 21, N-(3-chloro-4-fluoro-phenyl)-3-(4-fluorophenyl)-6,7-dihydro-4H-pyrazolo[1,5-a]pyrazine-5-carboxamide] as the compound, how does the EC50 read?
A: 76 nM

Q: For `O=C(Nc1ccc(F)c(Cl)c1)N1CCn2ncc(-c3ccccc3F)c2C1` [Example 24, N-(3-chloro-4-fluoro-phenyl)-3-(2-fluorophenyl)-6,7-dihydro-4H-pyrazolo[1,5-a]pyrazine-5-carboxamide], which EC50 is on record?
A: 33 nM

Q: For `O=C(Nc1cccc(Cl)c1)N1CCn2ncc(-c3ccccc3F)c2C1` [Example 30, N-(3-chlorophenyl)-3-(2-fluorophenyl)-6,7-dihydro-4H-pyrazolo[1,5-a]pyrazine-5-carboxamide], which EC50 is on record?
A: 72 nM

Q: For `O=C(Nc1ccc(F)cc1)N1CCn2ncc(-c3ccccc3F)c2C1` [Example 33, 3-(2-fluorophenyl)-N-(4-fluorophenyl)-6,7-dihydro-4H-pyrazolo[1,5-a]pyrazine-5-carboxamide], which EC50 is on record?
A: 85 nM

Q: With `O=C(Nc1ccc(F)c(C(F)(F)F)c1)N1CCn2ncc(-c3ccccc3F)c2C1` [Example 34, 3-(2-fluorophenyl)-N-[4-fluoro-3-(trifluoromethyl)phenyl]-6,7-dihydro-4H-pyrazolo[1,5-a]pyrazine-5-carboxamide] as the compound, how does the EC50 read?
A: 52 nM

Q: Which EC50 does the source give for `O=C(Nc1ccc(F)c(Cl)c1)N1CCn2ncc(-c3ccc(F)cc3F)c2C1` [Example 50, N-(3-chloro-4-fluoro-phenyl)-3-(2,4-difluorophenyl)-6,7-dihydro-4H-pyrazolo[1,5-a]pyrazine-5-carboxamide] here?
A: 36 nM

Q: How did the EC50 turn out when `O=C(Nc1cc(F)c(F)c(F)c1)N1CCn2ncc(-c3ccc(F)cc3F)c2C1` [Example 51, 3-(2,4-difluorophenyl)-N-(3,4,5-trifluorophenyl)-6,7-dihydro-4H-pyrazolo[1,5-a]pyrazine-5-carboxamide] was run?
A: 68 nM

Q: For `CC1Cn2ncc(-c3ccc(F)cc3)c2CN1C(=O)Nc1cc(F)c(F)c(F)c1` (centres unmarked) [Example 53, 3-(4-fluorophenyl)-6-methyl-N-(3,4,5-trifluorophenyl)-6,7-dihydro-4H-pyrazolo[1,5-a]pyrazine-5-carboxamide], which EC50 is on record?
A: 34 nM

Q: Which EC50 does the source give for `CC1Cn2ncc(-c3ccc(F)cc3)c2CN1C(=O)Nc1ccc(F)c(Cl)c1` (centres unmarked) [Example 61, N-(3-chloro-4-fluoro-phenyl)-3-(4-fluorophenyl)-6-methyl-6,7-dihydro-4H-pyrazolo[1,5-a]pyrazine-5-carboxamide] here?
A: 29 nM

Q: `O=C(Nc1ccc(F)c(Cl)c1)N1CCn2ncc(-c3cc(C(F)(F)F)ccn3)c2C1` [Example 67, N-(3-chloro-4-fluoro-phenyl)-3-[4-(trifluoromethyl)-2-pyridyl]-6,7-dihydro-4H-pyrazolo[1,5-a]pyrazine-5-carboxamide] was tested. Which EC50 did it give?
A: 29 nM

Q: With `Cc1cc(-c2cnn3c2CN(C(=O)Nc2ccc(F)c(Cl)c2)CC3)ncc1F` [Example 68, N-(3-chloro-4-fluoro-phenyl)-3-(5-fluoro-4-methyl-2-pyridyl)-6,7-dihydro-4H-pyrazolo[1,5-a]pyrazine-5-carboxamide] as the compound, how does the EC50 read?
A: 75 nM

Q: `O=C(Nc1ccc(F)c(Cl)c1)N1CCn2ncc(C3CCCCC3)c2C1` [Example 73, N-(3-chloro-4-fluoro-phenyl)-3-cyclohexyl-6,7-dihydro-4H-pyrazolo[1,5-a]pyrazine-5-carboxamide] was tested. Which EC50 did it give?
A: 45 nM

Q: How did the EC50 turn out when `N#Cc1cc(NC(=O)N2CCn3ncc(-c4ccc(F)cn4)c3C2)ccc1F` [Example 76, N-(3-cyano-4-fluoro-phenyl)-3-(5-fluoro-2-pyridyl)-6,7-dihydro-4H-pyrazolo[1,5-a]pyrazine-5-carboxamide] was run?
A: 95 nM

Q: With `O=C(Nc1ccc(F)c(Cl)c1)N1CCn2ncc(C3CCCC3)c2C1` [Example 78, N-(3-chloro-4-fluoro-phenyl)-3-cyclopentyl-6,7-dihydro-4H-pyrazolo[1,5-a]pyrazine-5-carboxamide] as the compound, how does the EC50 read?
A: 29 nM

Q: With `N#Cc1cc(NC(=O)N2CCn3ncc(C4CCCC4)c3C2)ccc1F` [Example 79, N-(3-cyano-4-fluoro-phenyl)-3-cyclopentyl-6,7-dihydro-4H-pyrazolo[1,5-a]pyrazine-5-carboxamide] as the compound, how does the EC50 read?
A: 28 nM

Q: For `Cc1cc(NC(=O)N2CCn3ncc(-c4ccc(F)cc4)c3C2)ccc1F` [Example 81, N-(4-fluoro-3-methyl-phenyl)-3-(4-fluorophenyl)-6,7-dihydro-4H-pyrazolo[1,5-a]pyrazine-5-carboxamide], which EC50 is on record?
A: 32 nM

Q: `CC1Cn2ncc(-c3ccc(F)cc3F)c2CN1C(=O)Nc1ccc(F)c(C#N)c1` (centres unmarked) [Example 85, N-(3-cyano-4-fluoro-phenyl)-3-(2,4-difluorophenyl)-6-methyl-6,7-dihydro-4H-pyrazolo[1,5-a]pyrazine-5-carboxamide] was tested. Which EC50 did it give?
A: 11 nM

Q: For `CC1Cn2ncc(-c3ccc(F)cc3)c2CN1C(=O)Nc1ccc(F)c(C#N)c1` (centres unmarked) [Example 86, N-(3-cyano-4-fluoro-phenyl)-3-(4-fluorophenyl)-6-methyl-6,7-dihydro-4H-pyrazolo[1,5-a]pyrazine-5-carboxamide], which EC50 is on record?
A: 66 nM

Q: For `CC1Cn2ncc(-c3ccc(F)cc3F)c2CN1C(=O)Nc1ccc(F)c(Cl)c1` (centres unmarked) [Example 92, N-(3-chloro-4-fluoro-phenyl)-3-(2,4-difluorophenyl)-6-methyl-6,7-dihydro-4H-pyrazolo[1,5-a]pyrazine-5-carboxamide], which EC50 is on record?
A: 13 nM

Q: Which EC50 does the source give for `CC1Cn2ncc(-c3ccc(F)cn3)c2CN1C(=O)Nc1ccc(F)c(Cl)c1` (centres unmarked) [Example 94, N-(3-chloro-4-fluoro-phenyl)-3-(5-fluoro-2-pyridyl)-6-methyl-6,7-dihydro-4H-pyrazolo[1,5-a]pyrazine-5-carboxamide] here?
A: 33 nM

Q: `CC1Cn2ncc(C3CCCC3)c2CN1C(=O)Nc1ccnc(Cl)c1` (centres unmarked) [Example 96, N-(2-chloro-4-pyridyl)-3-cyclopentyl-6-methyl-6,7-dihydro-4H-pyrazolo[1,5-a]pyrazine-5-carboxamide] was tested. Which EC50 did it give?
A: 72 nM

Q: With `CC1Cn2ncc(-c3ccc(F)cn3)c2CN1C(=O)Nc1cc(F)c(F)c(F)c1` (centres unmarked) [Example 99, 3-(5-fluoro-2-pyridyl)-6-methyl-N-(3,4,5-trifluorophenyl)-6,7-dihydro-4H-pyrazolo[1,5-a]pyrazine-5-carboxamide] as the compound, how does the EC50 read?
A: 24 nM

Q: With `CC1Cn2ncc(-c3ccc(F)cn3)c2CN1C(=O)Nc1ccc(F)c(C#N)c1` (centres unmarked) [Example 100, N-(3-cyano-4-fluoro-phenyl)-3-(5-fluoro-2-pyridyl)-6-methyl-6,7-dihydro-4H-pyrazolo[1,5-a]pyrazine-5-carboxamide] as the compound, how does the EC50 read?
A: 61 nM

Q: `C[C@H]1Cn2ncc(-c3ccc(F)cc3)c2CN1C(=O)Nc1ccc(F)c(Cl)c1` [Example 102, (6S)—N-(3-chloro-4-fluoro-phenyl)-3-(4-fluorophenyl)-6-methyl-6,7-dihydro-4H-pyrazolo[1,5-a]pyrazine-5-carboxamide] was tested. Which EC50 did it give?
A: 14 nM

Q: With `C#Cc1cc(NC(=O)N2CCn3ncc(-c4ccc(F)cc4)c3C2)ccc1F` [Example 122, N-(3-ethynyl-4-fluoro-phenyl)-3-(4-fluorophenyl)-6,7-dihydro-4H-pyrazolo[1,5-a]pyrazine-5-carboxamide] as the compound, how does the EC50 read?
A: 93 nM

Q: For `O=C(Nc1ccc(F)c(Cl)c1)N1CCn2cnc(-c3ccc(F)cc3)c2C1` [Example 127, N-(3-chloro-4-fluoro-phenyl)-1-(4-fluorophenyl)-6,8-dihydro-5H-imidazo[1,5-a]pyrazine-7-carboxamide], which EC50 is on record?
A: 86 nM

Q: With `C#Cc1cc(NC(=O)N2CCn3cnc(-c4ccc(F)cc4F)c3C2)ccc1F` [Example 134, 1-(2,4-difluorophenyl)-N-(3-ethynyl-4-fluoro-phenyl)-6,8-dihydro-5H-imidazo[1,5-a]pyrazine-7-carboxamide] as the compound, how does the EC50 read?
A: 85 nM

Q: With `O=C(Nc1ccc(F)c(Cl)c1)N1CCn2cnc(-c3ccc(F)cc3F)c2C1` [Example 135, N-(3-chloro-4-fluoro-phenyl)-1-(2,4-difluorophenyl)-6,8-dihydro-5H-imidazo[1,5-a]pyrazine-7-carboxamide] as the compound, how does the EC50 read?
A: 23 nM

Same assay, conditions: five days after compound treatment, extracellular HBV DNA in culture supernatant by qPCR, concentration at which HBV replication is inhibited by 50%

Q: How did the EC50 turn out when `CC1C(C#N)CC(=O)N1c1cnn2c1CN(C(=O)Nc1cc(F)c(F)c(F)c1)[C@@H](C)C2` (single isomer, unassigned) [Example 420-1] was run?
A: 27 nM

Q: `CC1C(C#N)CC(=O)N1c1cnn2c1CN(C(=O)Nc1cc(F)c(F)c(F)c1)[C@@H](C)C2` (single isomer, unassigned) [Example 420-2] was tested. Which EC50 did it give?
A: 30 nM

Q: `CC1C(C#N)CC(=O)N1c1cnn2c1CN(C(=O)Nc1cc(F)c(F)c(F)c1)[C@@H](C)C2` (single isomer, unassigned) [Example 420-3] was tested. Which EC50 did it give?
A: 3 nM

Q: With `C[C@H]1Cn2ncc(N3CC(c4ccccc4)C(O)C3=O)c2CN1C(=O)Nc1cc(F)c(F)c(F)c1` (single isomer, unassigned) [Example 438-1] as the compound, how does the EC50 read?
A: 10 nM

Q: With `C[C@H]1Cn2ncc(N3CC(c4ccccc4)C(O)C3=O)c2CN1C(=O)Nc1cc(F)c(F)c(F)c1` (single isomer, unassigned) [Example 438-2] as the compound, how does the EC50 read?
A: 108 nM

Q: For `C[C@H]1Cn2ncc(N3CC(c4ccccc4)C(O)C3=O)c2CN1C(=O)Nc1cc(F)c(F)c(F)c1` (single isomer, unassigned) [Example 438-3], which EC50 is on record?
A: 44 nM

Q: `C[C@H]1Cn2ncc(N3CC(c4ccccc4)C(O)C3=O)c2CN1C(=O)Nc1cc(F)c(F)c(F)c1` (single isomer, unassigned) [Example 438-4] was tested. Which EC50 did it give?
A: 10 nM
